Our source for the IC50 values is patent publication US8653087B2, “Pyrido [5, 4-D] pyrimidines as cell proliferation inhibitors” (Boehringer Ingelheim International GmbH, priority 2008, dated 2014).

Structures are written as SMILES.

The target of this assay is B-Raf (V600E)-kinase (Homo sapiens (Human), UniProt P15056, V600E). Briefly: Kinase test B-RAF (V600E). To be noted: B-RAF (V600E) kinase test, 250 μM ATP. The format is biochemical. Summed up: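 B-Raf (V600E) (0.5 ng) preincubated with compound 24 h at RT (5% DMSO), then reacted 60 min at RT with 250 μM ATP and biotinylated MEK1 as substrate. Phospho-MEK (Ser217/221) captured on streptavidin and detected by europium time-resolved fluorescence; IC50 from dose-response curves.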
Chain of B-Raf (V600E)-kinase (P15056 whole entry V600E): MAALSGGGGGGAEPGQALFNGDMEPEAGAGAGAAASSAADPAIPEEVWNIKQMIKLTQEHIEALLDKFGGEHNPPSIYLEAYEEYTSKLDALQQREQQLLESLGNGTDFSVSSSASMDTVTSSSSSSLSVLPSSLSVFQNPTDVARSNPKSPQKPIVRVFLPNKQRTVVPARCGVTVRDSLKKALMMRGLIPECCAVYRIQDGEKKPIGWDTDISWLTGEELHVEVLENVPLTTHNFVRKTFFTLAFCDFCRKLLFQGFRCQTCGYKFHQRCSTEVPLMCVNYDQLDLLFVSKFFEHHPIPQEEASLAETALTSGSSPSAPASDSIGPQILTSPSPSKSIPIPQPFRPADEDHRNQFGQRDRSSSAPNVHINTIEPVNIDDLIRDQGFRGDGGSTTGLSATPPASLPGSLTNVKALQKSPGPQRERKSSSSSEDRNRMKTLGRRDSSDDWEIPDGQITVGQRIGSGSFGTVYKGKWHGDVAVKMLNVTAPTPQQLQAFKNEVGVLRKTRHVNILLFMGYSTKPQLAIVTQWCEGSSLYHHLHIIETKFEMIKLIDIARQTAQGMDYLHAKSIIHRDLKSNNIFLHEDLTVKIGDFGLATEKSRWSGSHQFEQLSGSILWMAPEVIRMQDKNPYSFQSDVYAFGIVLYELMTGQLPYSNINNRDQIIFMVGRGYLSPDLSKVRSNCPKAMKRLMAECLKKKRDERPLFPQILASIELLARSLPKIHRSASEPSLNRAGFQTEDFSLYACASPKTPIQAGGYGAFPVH
`Cc1ccc(C(=O)NCc2ccc(C(C)(C)C)cc2)cc1Nc1ncnc2cnc(N3CCN(C)CC3)nc12` [III-226]: the IC50 – broadly, the midpoint of a concentration-inhibition curve – was determined as 101 nM. This lies in the sub-micromolar range.

`Cc1ccc(C(=O)NCc2ccc(C(F)(F)F)cc2)cc1Nc1ncnc2cnc(N3CCN(C)CC3)nc12` [III-227] gave an IC50 of 41 nM. This IC50 is about 2.5-fold lower than that of the compound before.

`Cc1ccc(C(=O)Nc2cccc(C(C)(C)C)c2)cc1Nc1ncnc2cnc(N3CCN(C)CC3)nc12` [III-229] displayed an IC50 of 1 nM.

Consider `COc1ccc(C(C)(C)C)cc1NC(=O)c1ccc(C)c(Nc2ncnc3cnc(N4CCN(C)CC4)nc23)c1` [III-230], for which the midpoint of inhibition, the IC50, lay at 6 nM.

`Cc1ccc(C(=O)Nc2ccc(F)c(C(F)(F)F)c2)cc1Nc1ncnc2cnc(N(C)CCN(C)C)nc12` [III-231]: the IC50 was found to be 29 nM.

The compound `Cc1ccc(C(=O)Nc2cccc(C(F)(F)F)c2)cc1Nc1ncnc2cnc(N(C)CCN(C)C)nc12` [III-232] yielded an IC50 of 4 nM.

`Cc1ccc(C(=O)NCc2ccc(C(C)(C)C)cc2)cc1Nc1ncnc2cnc(N(C)CCN(C)C)nc12` [III-233]: the IC50 stood at 571 nM.

Regarding `COc1ccc(C(F)(F)F)cc1NC(=O)c1ccc(C)c(Nc2ncnc3cnc(N(C)CCN(C)C)nc23)c1` [III-234], the IC50 amounted to 15 nM.

Compound `Cc1ccc(C(=O)Nc2ccc(Cl)c(C(F)(F)F)c2)cc1Nc1ncnc2cnc(N(C)CCN(C)C)nc12` [III-235] gave an IC50 of 2 nM.

In turn, `Cc1ccc(C(=O)NCc2ccc(C(F)(F)F)cc2)cc1Nc1ncnc2cnc(N(C)CCN(C)C)nc12` [III-236] had an IC50 of 1120 nM. This IC50 is about 560-fold higher than that of the compound before.

Consider `Cc1ccc(C(=O)Nc2cccc(OC(F)(F)F)c2)cc1Nc1ncnc2cnc(N(C)CCN(C)C)nc12` [III-237], for which the IC50 was found to be 2 nM. Compared with the last compound, the IC50 is about 560-fold lower.

As for `Cc1ccc(C(=O)Nc2cccc(N(C)C)c2)cc1Nc1ncnc2cnc(N(C)CCN(C)C)nc12` [III-238], inhibition was half-maximal at 87 nM (IC50).

For the compound `Cc1ccc(C(=O)Nc2cccc(C(C)(C)C)c2)cc1Nc1ncnc2cnc(N(C)CCN(C)C)nc12` [III-239], the IC50 was determined as 6 nM.

For the compound `COc1ccc(C(C)(C)C)cc1NC(=O)c1ccc(C)c(Nc2ncnc3cnc(N(C)CCN(C)C)nc23)c1` [III-240], the IC50 came to 4 nM.

In the case of `Cc1ccc(C(=O)NCc2ccc(C(C)(C)C)cc2)cc1Nc1ncnc2cnc(N3CC[C@@H](F)C3)nc12` [III-241], 48 nM corresponded to half-maximal inhibition (IC50).

The compound `Cc1ccc(C(=O)NCc2ccc(C(F)(F)F)cc2)cc1Nc1ncnc2cnc(N3CC[C@@H](F)C3)nc12` [III-242] had an IC50 of 19 nM. Compared with the last compound, the IC50 is about 2.5-fold lower.

With `Cc1ccc(C(=O)Nc2cccc(N(C)C)c2)cc1Nc1ncnc2cnc(N3CC[C@@H](F)C3)nc12` [III-243], the IC50 was under 1 nM.

With `Cc1ccc(C(=O)Nc2cccc(C(C)(C)C)c2)cc1Nc1ncnc2cnc(N3CC[C@@H](F)C3)nc12` [III-244], the IC50 was under 1 nM.

`Cc1ccc(C(=O)NCc2ccc(C(C)(C)C)cc2)cc1Nc1ncnc2cnc(N3CCCCC3)nc12` [III-245] came in with an IC50 of 460 nM. This lies in the sub-micromolar range.

The compound `Cc1ccc(C(=O)NCc2ccc(C(F)(F)F)cc2)cc1Nc1ncnc2cnc(N3CCCCC3)nc12` [III-246] came in with an IC50 of 29 nM.

The compound `Cc1ccc(C(=O)Nc2cccc(N(C)C)c2)cc1Nc1ncnc2cnc(N3CCCCC3)nc12` [III-247] gave an IC50 of 1 nM.

In turn, `Cc1ccc(C(=O)Nc2cccc(C(C)(C)C)c2)cc1Nc1ncnc2cnc(N3CCCCC3)nc12` [III-248] came in with an IC50 of 2 nM.

In the case of `COc1ccc(C(C)(C)C)cc1NC(=O)c1ccc(C)c(Nc2ncnc3cnc(N4CCCCC4)nc23)c1` [III-249], the IC50 worked out at 10 nM. This IC50 lies about 5-fold higher than the previous one.

Compound `Cc1ccc(C(=O)NCc2ccc(C(F)(F)F)cc2)cc1Nc1ncnc2cnc(N3CCCC3)nc12` [III-250] came in with a half-inhibitory concentration (IC50) of 40 nM.

As to `Cc1ccc(C(=O)Nc2cccc(S(=O)(=O)N(C)C)c2)cc1Nc1ncnc2cnc(N3CCCN(C)CC3)nc12` [III-251], the IC50 came to 19 nM.

As for `Cc1ccc(C(=O)Nc2ccc3c(c2)C(C)(C)C(=O)N3CCN2CCCC2)cc1Nc1ncnc2cnc(N3CCCN(C)CC3)nc12` [III-252], 8 nM corresponded to half-maximal inhibition (IC50).

In the case of `Cc1ccc(C(=O)Nc2ccccc2)cc1Nc1ncnc2cnc(N3CCCCC3)nc12` [III-253], the midpoint of inhibition, the IC50, lay at 269 nM.

`Cc1ccc(C(=O)NC2CC2)cc1Nc1ncnc2cnc(N3CCCCC3)nc12` [III-254] registered an IC50 of 2000 nM.

Regarding `Cc1ccc(C(=O)NCC2CCOC2)cc1Nc1ncnc2cnc(N3CCCC3)nc12` (stereo not shown) [III-256], half-maximal inhibition (IC50) required 15000 nM.

With `Cc1ccc(C(=O)NCc2cccc(C(F)(F)F)c2)cc1Nc1ncnc2cnc(N3CCCC3)nc12` [III-257], the IC50 is 61 nM.

Regarding `Cc1ccc(C(=O)NC2CCCCC2)cc1Nc1ncnc2cnc(N3CCCC3)nc12` [III-258], half-maximal inhibition (IC50) was put at 15000 nM.

Take `Cc1ccc(C(=O)Nc2ccccc2)cc1Nc1ncnc2cnc(N3CCCC3)nc12` [III-259]: the IC50 worked out at 505 nM. Against the preceding compound, the IC50 is about 30-fold lower.

As for `Cc1ccc(C(=O)NC2CC2)cc1Nc1ncnc2cnc(N3CCCC3)nc12` [III-260], half-maximal inhibition (IC50) required 2000 nM. This IC50 lies about 4-fold higher than the previous one.

`Cc1ccc(C(=O)Nc2cc(C(F)(F)F)ccn2)cc1Nc1ncnc2cnc(N3CCN(C)CC3)nc12` [III-261] yielded an IC50 of under 1 nM.

For `COc1ccc(C(F)(F)F)cc1NC(=O)c1ccc(C)c(Nc2ncnc3cnc(N4CCCCC4)nc23)c1` [III-262], the IC50 came to 9 nM.

As to `Cc1ccc(C(=O)Nc2cccc(N(C)C)c2)cc1Nc1ncnc2cnc(N3CCNCC3)nc12` [III-263], the IC50 came to 15 nM.

For the compound `Cc1ccc(C(=O)Nc2nnc(C(F)(F)F)s2)cc1Nc1ncnc2cnc(N3CCCC3)nc12` [III-264], the IC50 stood at 2600 nM.

For `Cc1ccc(C(=O)Nc2ccc(F)c(C(F)(F)F)c2)cc1Nc1ncnc2cnc(N3CCCC3)nc12` [III-265], the half-maximal inhibitory concentration (IC50) is 4 nM.

Compound `Cc1ccc(C(=O)Nc2cccc(C(F)(F)F)c2)cc1Nc1ncnc2cnc(N3CCCC3)nc12` [III-266] gave an IC50 of 1 nM.

`Cc1ccc(C(=O)NCc2ccc(C(C)(C)C)cc2)cc1Nc1ncnc2cnc(N3CCCC3)nc12` [III-267] yielded an IC50 of 836 nM.

Consider `COc1ccc(C(F)(F)F)cc1NC(=O)c1ccc(C)c(Nc2ncnc3cnc(N4CCCC4)nc23)c1` [III-268], for which the IC50 came to 120 nM. This IC50 lies about 7-fold lower than the previous one.

For the compound `Cc1ccc(C(=O)Nc2ccc(Cl)c(C(F)(F)F)c2)cc1Nc1ncnc2cnc(N3CCCC3)nc12` [III-269], the IC50 came out at 33 nM. This IC50 is about 3.6-fold lower than that of the compound before.

`Cc1ccc(C(=O)Nc2cccc(OC(F)(F)F)c2)cc1Nc1ncnc2cnc(N3CCCC3)nc12` [III-270] showed an IC50 of 20 nM.

Compound `Cc1ccc(C(=O)Nc2cccc(N(C)C)c2)cc1Nc1ncnc2cnc(N3CCCC3)nc12` [III-271] had an IC50 of 10 nM.

The compound `Cc1ccc(C(=O)Nc2cccc(C(C)(C)C)c2)cc1Nc1ncnc2cnc(N3CCCC3)nc12` [III-272] returned an IC50 of 2 nM.

`Cc1ccc(C(=O)Nc2ccc(C#N)c(C(F)(F)F)c2)cc1Nc1ncnc2cnc(N3CCCC3)nc12` [III-273]: the IC50 is 31 nM. This IC50 lies about 16-fold higher than the previous one.

`Cc1ccc(C(=O)Nc2cccc(S(=O)(=O)N(C)C)c2)cc1Nc1ncnc2cnc(N3CCCC3)nc12` [III-274] came in with an IC50 of 3 nM.

`Cc1ccc(C(=O)Nc2cc(C(F)(F)F)ccn2)cc1Nc1ncnc2cnc(N3CCCC3)nc12` [III-275] registered an IC50 of 2 nM.

The compound `Cc1ccc(C(=O)Nc2cccc(C(C)(C)C#N)c2)cc1Nc1ncnc2cnc(N3CCCC3)nc12` [III-276] had an IC50 of 6 nM.

Turning to `COc1c(NC(=O)c2ccc(C)c(Nc3ncnc4cnc(N5CCCC5)nc34)c2)cc(C(C)(C)C)cc1NS(C)(=O)=O` [III-277], the midpoint of inhibition, the IC50, lay at 23 nM.

In the case of `Cc1ccc(C(=O)NCc2cccc(C(C)(C)C)c2)cc1Nc1ncnc2cnc(N3CCCC3)nc12` [III-278], it took 88 nM to reach half-maximal inhibition (IC50). This IC50 is about 3.8-fold higher than that of the compound before.

With `Cc1ccc(C(=O)Nc2cc(C(F)(F)F)ccn2)cc1Nc1ncnc2cnc(N(C)CCN(C)C)nc12` [III-279], the IC50 was 6 nM.

Regarding `Cc1ccc(C(=O)Nc2nnc(C(F)(F)F)s2)cc1Nc1ncnc2cnc(N(C)CCN(C)C)nc12` [III-280], inhibition was half-maximal at 10000 nM (IC50).

The compound `Cc1ccc(C(=O)Nc2ccc(C#N)c(C(F)(F)F)c2)cc1Nc1ncnc2cnc(N(C)CCN(C)C)nc12` [III-281] came in with an IC50 of 5 nM.

Turning to `Cc1ccc(C(=O)Nc2nnc(C(F)(F)F)s2)cc1Nc1ncnc2cnc(N3CCCN(C)CC3)nc12` [III-282], the IC50 worked out at 1400 nM.

As to `Cc1ccc(C(=O)Nc2cc(C(F)(F)F)ccn2)cc1Nc1ncnc2cnc(N3CCCN(C)CC3)nc12` [III-283], half-maximal inhibition (IC50) was put at 3 nM.

Take `Cc1ccc(C(=O)Nc2ccc(C#N)c(C(F)(F)F)c2)cc1Nc1ncnc2cnc(N3CCCN(C)CC3)nc12` [III-284]: the IC50 was 3 nM. This lies in the single-digit nanomolar range.

Compound `Cc1ccc(C(=O)Nc2nnc(C(F)(F)F)s2)cc1Nc1ncnc2cnc(N3CC[C@H](F)C3)nc12` [III-285] showed an IC50 of 274 nM.

For `Cc1ccc(C(=O)Nc2ccc(F)c(C(F)(F)F)c2)cc1Nc1ncnc2cnc(N3CC[C@H](F)C3)nc12` [III-286], it took 3 nM to reach half-maximal inhibition (IC50).

The compound `Cc1ccc(C(=O)Nc2cccc(C(F)(F)F)c2)cc1Nc1ncnc2cnc(N3CC[C@H](F)C3)nc12` [III-287] had an IC50 of 1 nM. This IC50 lies about 3-fold lower than the previous one.

`COc1ccc(C(F)(F)F)cc1NC(=O)c1ccc(C)c(Nc2ncnc3cnc(N4CC[C@H](F)C4)nc23)c1` [III-288] registered an IC50 of 2 nM.

In turn, `Cc1ccc(C(=O)Nc2ccc(Cl)c(C(F)(F)F)c2)cc1Nc1ncnc2cnc(N3CC[C@H](F)C3)nc12` [III-289] displayed an IC50 of 13 nM.

Compound `Cc1ccc(C(=O)Nc2cccc(OC(F)(F)F)c2)cc1Nc1ncnc2cnc(N3CC[C@H](F)C3)nc12` [III-290] displayed an IC50 of 1 nM.

`COc1ccc(C(C)(C)C)cc1NC(=O)c1ccc(C)c(Nc2ncnc3cnc(N4CC[C@H](F)C4)nc23)c1` [III-291]: the IC50 was 21 nM. This IC50 is about 21-fold higher than that of the compound before.

For the compound `Cc1ccc(C(=O)Nc2ccc(C#N)c(C(F)(F)F)c2)cc1Nc1ncnc2cnc(N3CC[C@H](F)C3)nc12` [III-292], the IC50 was 36 nM.

Take `Cc1ccc(C(=O)Nc2cccc(S(=O)(=O)N(C)C)c2)cc1Nc1ncnc2cnc(N3CC[C@H](F)C3)nc12` [III-293]: the IC50 stood at 7 nM.

Consider `Cc1ccc(C(=O)Nc2cccc(C(C)(C)C)c2)cc1Nc1ncnc2cnc(N3CCOCC3)nc12` [III-294], for which the IC50 was determined as 1 nM.
